Patent publication US10538490B2, “Benzylaminopyridylcyclopropanecarboxylic acids, pharmaceutical compositions and uses thereof” (Boehringer Ingelheim International GmbH, priority 2016, dated 2020)

Molecular target: human GPR40 receptor (Homo sapiens, UniProt O14842)
Experiment: IP1 accumulation measurements using the IPOne assay system
Assay type: cell-based
Conditions: 1321N1 cells stably expressing human GPR40 receptor, stimulation 1 h at 37° C.
Protocol: IP1 accumulation measurements using the IPOne assay system—1321N1 cells stably expressing human GPR40 receptor (Euroscreen, Belgium) are seeded 24 h before the assay in white 384-well plates in culture medium containing 10% FCS, 1% Na-Pyruvate and 400 μg/mL G418. IPi is assayed according to the manufacturer's description (Cisbio Bioassays, France). In brief, the assay is started by substitution of the culture medium by stimulation buffer (Hepes 10 mM, CaCl2 1 mM, MgCl2 0.5 mM, KCl 4.2 mM, NaCl 146 mM, glucose 5.5 mM and LiCl 50 mM, pH 7.4). Cells are stimulated for 1 h at 37° C., 5% CO2 by addition of the compounds that are diluted in stimulation buffer containing LiCl. Assays are stopped by adding HTRF-conjugates (IP1-d2 and Anti-IP1 cryptate Tb) and lysis buffer, provided by the manufacturer. After an incubation time of 1 h at room temperature plates are measured using an EnVision™, Perkin Elmer. The obtained fluorescence ratios at 665/615 […] are then used to calculate the pEC50 values using Assay Explorer 3.3 Software (Accelrys, Inc.) by interpolation using an IP1 reference curve and subsequent sigmoidal curve fitting allowing for a variable hill slope.

Sequence of human GPR40 receptor (O14842 whole entry): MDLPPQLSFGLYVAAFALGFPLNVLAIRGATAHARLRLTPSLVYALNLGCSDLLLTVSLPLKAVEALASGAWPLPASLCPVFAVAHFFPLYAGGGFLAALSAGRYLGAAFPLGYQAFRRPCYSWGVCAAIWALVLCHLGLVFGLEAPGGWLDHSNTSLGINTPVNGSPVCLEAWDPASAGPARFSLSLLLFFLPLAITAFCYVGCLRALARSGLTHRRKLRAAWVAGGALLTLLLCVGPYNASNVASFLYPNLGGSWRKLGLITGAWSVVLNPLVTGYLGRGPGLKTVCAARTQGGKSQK

Compound | EC50
NCc1ccc(F)c(-c2cc(CNc3ccc([C@H]4C[C@@H]4C(=O)O)cn3)c(F)cc2F)c1 [Example 3, (1S,2S)-2-{6-[(5′-Aminomethyl-4,6,2′-trifluoro-biphenyl-3-ylmethyl)-amino]-pyridin-3-yl}-cyclopropanecarboxylic Acid] | > 10000 nM
Cc1cc(OCCC(C)(C)O)cc(C)c1-c1cc(CNc2ccc([C@H]3C[C@@H]3C(=O)O)cn2)ccc1C(F)(F)F [Example 5, (1S,2S)-2-(6-{[4′-(3-Hydroxy-3-methyl-butoxy)-2′,6′-dimethyl-6-trifluoromethyl-biphenyl-3-ylmethyl]-amino}-pyridin-3-yl)-cyclopropanecarboxylic Acid] | 12 nM
O=C(O)[C@H]1C[C@@H]1c1ccc(NCc2ccc(C(F)(F)F)c(-c3ccc(OC(F)(F)F)cc3)c2)nc1 [Example 6, (1S,2S)-2-{6-[(4′-Trifluoromethoxy-6-trifluoromethyl-biphenyl-3-ylmethyl)-amino]-pyridin-3-yl}-cyclopropanecarboxylic Acid] | 38 nM
Cc1cc(OCCCS(C)(=O)=O)cc(C)c1-c1cccc(CNc2ccc([C@H]3C[C@@H]3C(=O)O)cn2)c1 [Example 8, (1S,2S)-2-(6-{[4′-(3-Methanesulfonyl-propoxy)-2′,6′-dimethyl-biphenyl-3-ylmethyl]-amino}-pyridin-3-yl)-cyclopropanecarboxylic Acid] | 50 nM
Cc1cc(-c2cnccn2)cc(C)c1-c1ccc(F)c(CNc2ccc([C@H]3C[C@@H]3C(=O)O)cn2)c1 [Example 11] | 21 nM
Cc1cc(OCCCS(C)(=O)=O)cc(C)c1-c1ccc(F)c(CNc2ccc([C@H]3C[C@@H]3C(=O)O)cn2)c1 [Example 12] | > 10000 nM
Cc1cc(-c2ccc(=O)n(C)c2)cc(C)c1-c1ccc(F)c(CNc2ccc([C@H]3C[C@@H]3C(=O)O)cn2)c1 [Example 13] | 17 nM
Cc1cc(-c2nnn(CC(C)(C)O)n2)cc(C)c1-c1ccc(F)c(CNc2ccc([C@H]3C[C@@H]3C(=O)O)cn2)c1 [Example 14] | 11 nM
Cc1cc(OCC2(O)CCSCC2)cc(C)c1-c1ccc(F)c(CNc2ccc([C@H]3C[C@@H]3C(=O)O)cn2)c1 [Example 16] | 64 nM
N#Cc1cccc(C#N)c1-c1ccc(F)c(CNc2ccc([C@H]3C[C@@H]3C(=O)O)cn2)c1 [Example 23] | > 10000 nM
O=C(O)[C@H]1C[C@@H]1c1ccc(NCc2cc(-c3ccccc3C(F)(F)F)ccc2F)nc1 [Example 24] | 204 nM
N#CC1(c2ccccc2-c2ccc(F)c(CNc3ccc([C@H]4C[C@@H]4C(=O)O)cn3)c2)CC1 [Example 32] | 1940 nM
Cc1cc(OCC2CCOC2)cc(C)c1-c1ccc(F)c(CNc2ccc([C@H]3C[C@@H]3C(=O)O)cn2)c1 (stereo partly shown) [Example 36] | 85 nM
Cc1cc(-c2ccn(C)c(=O)c2)cc(C)c1-c1ccc(F)c(CNc2ccc([C@H]3C[C@@H]3C(=O)O)cn2)c1 [Example 44] | 32 nM
Cc1cc(OCC2(C)COC2)cc(C)c1-c1ccc(F)c(CNc2ccc([C@H]3C[C@@H]3C(=O)O)cn2)c1 [Example 45] | 147 nM
Cc1cc(OCC(C)(C)C#N)cc(C)c1-c1ccc(F)c(CNc2ccc([C@H]3C[C@@H]3C(=O)O)cn2)c1 [Example 46] | 96 nM
Cc1cc(OCc2ccccc2)cc(C)c1-c1ccc(F)c(CNc2ccc([C@H]3C[C@@H]3C(=O)O)cn2)c1 [Example 47] | 107 nM
Cc1cc(-c2ccn(C)c(=O)n2)cc(C)c1-c1ccc(F)c(CNc2ccc([C@H]3C[C@@H]3C(=O)O)cn2)c1 [Example 49] | 72 nM
Cc1cc(-c2ccnn2C)cc(C)c1-c1ccc(F)c(CNc2ccc([C@H]3C[C@@H]3C(=O)O)cn2)c1 [Example 50] | 25 nM
CC(C)c1ccccc1-c1ccc(F)c(CNc2ccc([C@H]3C[C@@H]3C(=O)O)cn2)c1 [Example 54] | 317 nM
Cc1cc(OCC2(O)CCS(=O)(=O)CC2)cc(C)c1-c1ccc(F)c(CNc2ccc([C@H]3C[C@@H]3C(=O)O)cn2)c1 [Example 57] | 422 nM

Compound | EC50
Cc1cc(OCC2CCOCC2)cc(C)c1-c1ccc(F)c(CNc2ccc([C@H]3C[C@@H]3C(=O)O)cn2)c1 [Example 58] | 43 nM
Cc1cc(C(=O)N(C)C)cc(C)c1-c1ccc(F)c(CNc2ccc([C@H]3C[C@@H]3C(=O)O)cn2)c1 [Example 60] | 550 nM
N#Cc1cccc(C#N)c1-c1cc(CNc2ccc([C@H]3C[C@@H]3C(=O)O)cn2)c(F)cc1F [Example 65] | > 10000 nM
O=C(O)[C@H]1C[C@@H]1c1ccc(NCc2cc(-c3ccccc3C(F)(F)F)c(F)cc2F)nc1 [Example 66] | 48 nM
Cc1cc(C(=O)O)cc(C)c1-c1cc(CNc2ccc([C@H]3C[C@@H]3C(=O)O)cn2)c(F)cc1F [Example 69] | 5960 nM
Nc1cc(F)c(-c2cc(CNc3ccc([C@H]4C[C@@H]4C(=O)O)cn3)c(F)cc2F)c(F)c1 [Example 70] | 3630 nM
O=C(O)[C@H]1C[C@@H]1c1ccc(NCc2cc(-c3c(F)cc(OC4CC4)cc3F)c(F)cc2F)nc1 [Example 71] | 140 nM
COc1cc(OC)c(-c2cc(CNc3ccc([C@H]4C[C@@H]4C(=O)O)cn3)c(F)cc2F)c(OC)c1 [Example 72] | 838 nM
O=C(O)[C@H]1C[C@@H]1c1ccc(NCc2cc(-c3c(Cl)cccc3Cl)c(F)cc2F)nc1 [Example 73] | 40 nM
N#CC1(c2ccccc2-c2cc(CNc3ccc([C@H]4C[C@@H]4C(=O)O)cn3)c(F)cc2F)CC1 [Example 74] | 1340 nM
COc1cc(OC)c(Cl)c(-c2cc(CNc3ccc([C@H]4C[C@@H]4C(=O)O)cn3)c(F)cc2F)c1Cl [Example 75] | 50 nM
Cc1cc(C(N)=O)cc(C)c1-c1cc(CNc2ccc([C@H]3C[C@@H]3C(=O)O)cn2)c(F)cc1F [Example 76] | 340 nM
Cc1cc(OCC2CCOC2)cc(C)c1-c1cc(CNc2ccc([C@H]3C[C@@H]3C(=O)O)cn2)c(F)cc1F (stereo partly shown) [Example 78] | 5 nM
Cc1cc(O[C@H]2CCOC2)cc(C)c1-c1cc(CNc2ccc([C@H]3C[C@@H]3C(=O)O)cn2)c(F)cc1F [Example 79] | 42 nM
Cc1cc(CO)cc(C)c1-c1cc(CNc2ccc([C@H]3C[C@@H]3C(=O)O)cn2)c(F)cc1F [Example 82] | 236 nM
Cc1cc(OCC(C)(C)O)cc(C)c1-c1cc(CNc2ccc([C@H]3C[C@@H]3C(=O)O)cn2)c(F)cc1F [Example 83] | 104 nM
Cc1cc(OC2CCOCC2)cc(C)c1-c1cc(CNc2ccc([C@H]3C[C@@H]3C(=O)O)cn2)c(F)cc1F [Example 84] | 57 nM
Cc1cc(-c2cc(=O)n(C)cn2)cc(C)c1-c1cc(CNc2ccc([C@H]3C[C@@H]3C(=O)O)cn2)c(F)cc1F [Example 85] | 25 nM
Cc1cc(-c2ccn(C)c(=O)c2)cc(C)c1-c1cc(CNc2ccc([C@H]3C[C@@H]3C(=O)O)cn2)c(F)cc1F [Example 86] | 29 nM
Cc1cc(OCC2(C)COC2)cc(C)c1-c1cc(CNc2ccc([C@H]3C[C@@H]3C(=O)O)cn2)c(F)cc1F [Example 87] | 89 nM

Second part, the molecule after the results:

EC50 | Compound
353 nM | Cc1cc(OCC(=O)O)cc(C)c1-c1ccc(F)c(CNc2ccc([C@H]3C[C@@H]3C(=O)O)cn2)c1 [Example 17]
2100 nM | COc1cc(F)c(-c2ccc(F)c(CNc3ccc([C@H]4C[C@@H]4C(=O)O)cn3)c2)c(F)c1 [Example 19]
2300 nM | O=C(O)[C@H]1C[C@@H]1c1ccc(NCc2cc(-c3c(F)cccc3F)ccc2F)nc1 [Example 20]
834 nM | O=C(O)[C@H]1C[C@@H]1c1ccc(NCc2cc(-c3c(C(F)(F)F)cccc3C(F)(F)F)ccc2F)nc1 [Example 21]
477 nM | COc1c(F)c(F)c(-c2ccc(F)c(CNc3ccc([C@H]4C[C@@H]4C(=O)O)cn3)c2)c(F)c1F [Example 22]
> 10000 nM | Cc1cc(C(=O)O)cc(C)c1-c1ccc(F)c(CNc2ccc([C@H]3C[C@@H]3C(=O)O)cn2)c1 [Example 27]
6720 nM | Nc1cc(F)c(-c2ccc(F)c(CNc3ccc([C@H]4C[C@@H]4C(=O)O)cn3)c2)c(F)c1 [Example 28]
570 nM | O=C(O)[C@H]1C[C@@H]1c1ccc(NCc2cc(-c3c(F)cc(OC4CC4)cc3F)ccc2F)nc1 [Example 29]
105 nM | O=C(O)[C@H]1C[C@@H]1c1ccc(NCc2cc(-c3c(Cl)cccc3Cl)ccc2F)nc1 [Example 31]
128 nM | COc1cc(OC)c(Cl)c(-c2ccc(F)c(CNc3ccc([C@H]4C[C@@H]4C(=O)O)cn3)c2)c1Cl [Example 33]
612 nM | Cc1cc(C(N)=O)cc(C)c1-c1ccc(F)c(CNc2ccc([C@H]3C[C@@H]3C(=O)O)cn2)c1 [Example 34]
1340 nM | COc1cc(OC)c(F)c(-c2ccc(F)c(CNc3ccc([C@H]4C[C@@H]4C(=O)O)cn3)c2)c1F [Example 52]
375 nM | CNC(=O)c1cc(C)c(-c2ccc(F)c(CNc3ccc([C@H]4C[C@@H]4C(=O)O)cn3)c2)c(C)c1 [Example 59]
668 nM | COc1cc(F)c(-c2cc(CNc3ccc([C@H]4C[C@@H]4C(=O)O)cn3)c(F)cc2F)c(F)c1 [Example 62]
931 nM | O=C(O)[C@H]1C[C@@H]1c1ccc(NCc2cc(-c3c(F)cccc3F)c(F)cc2F)nc1 [Example 63]
123 nM | COc1c(F)c(F)c(-c2cc(CNc3ccc([C@H]4C[C@@H]4C(=O)O)cn3)c(F)cc2F)c(F)c1F [Example 64]
491 nM | O=C(O)[C@H]1C[C@@H]1c1ccc(NCc2cc(-c3c(F)cc(F)cc3F)c(F)cc2F)nc1 [Example 81]
